Test results published in ChEMBL document CHEMBL1140005, “Phenylpropanoic acid derivatives bearing a benzothiazole ring as PPARdelta-selective agonists” (Bioorg Med Chem Lett, 2007).

Experiments:
[1] = molecular target: T1, Peroxisome proliferator-activated receptor delta (Homo sapiens, UniProt Q03181)
T1 sequence (Q03181 whole entry): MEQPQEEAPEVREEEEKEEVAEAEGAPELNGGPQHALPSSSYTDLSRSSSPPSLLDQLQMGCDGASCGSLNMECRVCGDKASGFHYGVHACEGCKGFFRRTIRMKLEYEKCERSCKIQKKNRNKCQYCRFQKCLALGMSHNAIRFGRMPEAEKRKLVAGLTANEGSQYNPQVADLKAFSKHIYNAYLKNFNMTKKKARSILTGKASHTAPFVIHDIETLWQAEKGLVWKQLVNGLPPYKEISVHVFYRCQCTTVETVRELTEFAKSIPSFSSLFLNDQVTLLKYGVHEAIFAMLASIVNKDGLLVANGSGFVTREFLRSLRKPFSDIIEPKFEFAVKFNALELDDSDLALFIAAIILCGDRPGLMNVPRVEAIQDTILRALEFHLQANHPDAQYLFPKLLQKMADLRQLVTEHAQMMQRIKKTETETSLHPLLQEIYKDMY

[2] = molecular target: T2, Peroxisome proliferator-activated receptor gamma (Homo sapiens, UniProt P37231); test: Agonist activity at human PPARgamma receptor expressed in HEK293 cells by GAL4 transactivation assay; type: functional, cell-based
T2 sequence (P37231 whole entry): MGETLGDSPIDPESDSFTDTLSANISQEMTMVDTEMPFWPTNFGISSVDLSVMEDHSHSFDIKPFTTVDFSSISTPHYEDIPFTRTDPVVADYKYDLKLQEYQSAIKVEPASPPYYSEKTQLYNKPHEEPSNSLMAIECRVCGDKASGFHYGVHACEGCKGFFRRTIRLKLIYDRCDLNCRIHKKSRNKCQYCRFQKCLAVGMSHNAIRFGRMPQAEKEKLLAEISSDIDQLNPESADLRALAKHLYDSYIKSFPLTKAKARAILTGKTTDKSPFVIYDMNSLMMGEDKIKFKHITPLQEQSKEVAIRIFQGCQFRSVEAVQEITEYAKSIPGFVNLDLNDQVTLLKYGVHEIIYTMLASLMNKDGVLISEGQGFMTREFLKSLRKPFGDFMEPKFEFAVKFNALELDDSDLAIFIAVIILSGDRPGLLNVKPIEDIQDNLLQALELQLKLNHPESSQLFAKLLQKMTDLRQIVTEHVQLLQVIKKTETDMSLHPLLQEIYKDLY

[3] = molecular target: T3, Peroxisome proliferator-activated receptor alpha (Homo sapiens, UniProt Q07869); test: Agonist activity at human PPARalpha receptor expressed in HEK293 cells by GAL4 transactivation assay; type: functional, cell-based
T3 sequence (Q07869 whole entry): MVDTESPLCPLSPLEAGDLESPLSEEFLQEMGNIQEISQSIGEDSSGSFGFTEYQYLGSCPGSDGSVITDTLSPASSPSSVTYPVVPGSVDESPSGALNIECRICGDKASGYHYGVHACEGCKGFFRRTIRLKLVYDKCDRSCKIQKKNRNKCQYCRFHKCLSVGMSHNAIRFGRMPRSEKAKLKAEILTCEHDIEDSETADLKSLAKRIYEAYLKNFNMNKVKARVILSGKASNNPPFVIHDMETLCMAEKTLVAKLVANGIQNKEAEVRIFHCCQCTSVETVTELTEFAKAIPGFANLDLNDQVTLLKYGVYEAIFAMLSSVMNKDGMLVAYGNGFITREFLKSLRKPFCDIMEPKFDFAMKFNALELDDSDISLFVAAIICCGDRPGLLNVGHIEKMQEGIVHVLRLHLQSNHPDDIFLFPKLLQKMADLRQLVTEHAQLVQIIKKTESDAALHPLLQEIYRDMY

Row | Compound | EC50 [1] [nM] | EC50 [2] [nM] | EC50 [3] [nM]
1 | O=C(O)CCc1ccc(OCCN(Cc2ccc(C(F)(F)F)cc2)c2nc3ccccc3s2)cc1 | 940 | 3690 | 4460
2 | O=C(O)CCc1ccc(OCCN(Cc2cccs2)c2nc3ccccc3s2)cc1 | 1740 |  | 
3 | Cc1cc(OCCN(Cc2ccccc2)c2nc3ccccc3s2)ccc1CCC(=O)O | 1170 |  | 
4 | Cc1cc(CCC(=O)O)ccc1OCCCN(Cc1cccs1)c1nc2ccc(Cl)cc2s1 | 390 |  | 
5 | O=C(O)CCc1ccc(OCCN(Cc2ccccc2)c2nc3ccc(Cl)cc3s2)cc1 | 1360 |  | 
6 | CCc1cc(OCCN(Cc2ccccc2)c2nc3ccccc3s2)ccc1CCC(=O)O | 2970 |  | 

Now from value to compound, other results behind:

Row | EC50 [1] [nM] | Compound | EC50 [2] [nM] | EC50 [3] [nM]
7 | 2810 | O=C(O)CCc1ccc(OCCN(Cc2ccccc2)c2nc3ccccc3s2)cc1 |  | 
8 | 4880 | CC(C)(C)c1ccc(CN(CCOc2ccc(CCC(=O)O)cc2)c2nc3ccccc3s2)cc1 | 6340 | 
9 | 2610 | Cc1ccc2nc(N(CCOc3ccc(CCC(=O)O)cc3)Cc3ccccc3)sc2c1 |  | 
10 | 2550 | O=C(O)CCc1ccc(OCCCN(Cc2ccccc2)c2nc3ccccc3s2)cc1 |  | 
